From article PMC5059489, “Mechanistic evaluation and transcriptional signature of a glutathione S-transferase omega 1 inhibitor” (Nature Communications, 2016) come the findings set out here.

Assay [1] concerns HCT116p53+/+ cell. In words: MTT cell proliferation at single concentration. It counts as cell-based, human. As for the experimental part: Cell proliferation was assessed by a MTT assay. Cancer cells were seeded in 96-well microtitre plates and, after overnight attachment, treated with GSTO1 inhibitors. After 72 h, MTT solution (3 mg ml^−1; 20 μl) was added to each well and cells were incubated for 3 h at 37 °C. After incubation, media from each well was removed and the dark blue formazan crystals formed by live cells were dissolved in DMSO (150 μl per well). The absorbance intensity was measured at 570 nm on a microplate reader (Molecular Devices, Sunnyvale, CA, USA). Cell viability after 24 h treatment was assessed using ApoTox-Glo triplex assay (Promega) according to the manufacturer's protocol. At least three independent dose–response experiments with each concentration tested in triplicate were performed for each cell line.

Assay [2] has as its target T1, GSTO1 (Homo sapiens, UniProt P78417).
T1 sequence (P78417 1-241): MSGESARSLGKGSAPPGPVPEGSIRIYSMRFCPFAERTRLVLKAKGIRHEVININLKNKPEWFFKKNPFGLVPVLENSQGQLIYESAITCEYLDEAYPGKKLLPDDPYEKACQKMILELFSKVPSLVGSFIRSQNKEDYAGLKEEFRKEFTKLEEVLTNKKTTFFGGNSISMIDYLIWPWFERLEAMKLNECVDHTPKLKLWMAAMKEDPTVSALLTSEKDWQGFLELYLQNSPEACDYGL
In words: GSTO1 substrate assay (reduction of 4-NPG). The conditions noted are these: for IC50: read-out: GSTO substrate assay IC50, cluster screening tables.
Experimental: For activity screening, we adapted a GSTO1 substrate assay that relies on the quantification of the reduction of S-(4-nitrophenacyl)glutathione (4-NPG), a GSTO1-specific substrate[17], using recombinant human GSTO1 in a high-throughput screening format.
Enzyme activity was measured by monitoring the reduction of 4-NPG to 4-nitroacetophenone by GSTO1.

Assay [3] addresses T1, GSTO1. In words: In-gel fluorescence competitive CMFDA binding assay, recombinant GSTO1. To be noted: inhibition of CMFDA binding.
Text: (§1) Primary screening of GSTO inhibitors was based on competitive inhibition of CMFDA binding to endogenous GSTO. Briefly, HCT116^p53+/+ cells (4 × 10^4 per well) were coated in a 12-well plate. […] Cells were then washed with PBS and lysed using Cell Lytic M buffer (Sigma). […] Gels were immediately scanned on a Typhoon variable mode imager (Amersham Bioscience). Quantification of fluorescent band intensity was done using Image Quant 5.2 software.
For assay [4], the target named is T2, endogenous GSTO1 (Homo sapiens, UniProt P78417).
T2 sequence (P78417 1-241): T1 sequence (P78417 1-241)
The experiment in a line: In-gel fluorescence competitive CMFDA binding assay, endogenous GSTO1 in HCT116. The conditions noted are these: 10 µM; inhibition of CMFDA binding, HCT116.
Text: as §1

“And” between values parts separate entries of the source, which are not always exact repeats. Equal entries are not always repeated.

Take `COc1ccc(-c2csc(NC(=O)CCl)n2)c(O)c1` [C2-24]: the “% Inhibition of HCT116p53+/+ cell proliferation at 10 µM” value in assay [1] is 22.9% and 19.2%. In addition, in assay [2], the “GSTO substrate assay % Inhibition at 10 µM” value is given as 34.0%. Also, the “GSTO binding assay (% Inhibition at 10 µM) Recombinant” value in assay [3] turned out to be 82.4%. The “GSTO binding assay (% Inhibition at 10 µM) Endogenous” value in assay [4] is given as 62.1%.
As for `Cc1cc(NC(=O)CCl)ccc1N1CCCC1` [C1-16], the “% Inhibition of HCT116p53+/+ cell proliferation at 10 µM” value in assay [1] stood at 41.9%. Further, the “GSTO substrate assay % Inhibition at 10 µM” value in assay [2] is given as 87.8%. The “GSTO binding assay (% Inhibition at 10 µM) Recombinant” value in assay [3] is 49.2%. Moreover, the “GSTO binding assay (% Inhibition at 10 µM) Endogenous” value in assay [4] amounted to 46.7%.
In the case of `CC(=O)N1CCc2cc(NC(=O)CCl)ccc21` [C1-22], the “% Inhibition of HCT116p53+/+ cell proliferation at 10 µM” value in assay [1] is 80.8% and 86%. In assay [2], the “GSTO substrate assay % Inhibition at 10 µM” value was determined as 41.4%. Besides, the “GSTO binding assay (% Inhibition at 10 µM) Recombinant” value in assay [3] came to 25.1%. Besides, the “GSTO binding assay (% Inhibition at 10 µM) Endogenous” value in assay [4] is given as 49.0%.
Regarding `O=C(CCl)N(CC(F)(F)F)c1ccc(Cl)cc1` [C4-1], the “% Inhibition of HCT116p53+/+ cell proliferation at 10 µM” value in assay [1] was 76.2% and 81.4%. Besides, in assay [2], the “GSTO substrate assay % Inhibition at 10 µM” value was 73.0% and the IC50 – broadly, the concentration needed to halve the response being measured – stood at 3800 nM. Besides, the “GSTO binding assay (% Inhibition at 10 µM) Recombinant” value in assay [3] is on record as 40.4%. In addition, the “GSTO binding assay (% Inhibition at 10 µM) Endogenous” value in assay [4] came out at 58.5%.
`O=C(CCl)NNC(=O)c1cc2c(s1)CCCC2` [C3-23]: the “% Inhibition of HCT116p53+/+ cell proliferation at 10 µM” value in assay [1] is recorded as 3.7%. For the same compound, the “GSTO substrate assay % Inhibition at 10 µM” value in assay [2] was -3.5%. In addition, in assay [3], the “GSTO binding assay (% Inhibition at 10 µM) Recombinant” value is recorded as -4.1%. Further, the “GSTO binding assay (% Inhibition at 10 µM) Endogenous” value in assay [4] is on record as -11.7%.
For the compound `CC(C)C(NC(=O)CCl)c1ccc2c(c1)OCCO2` (stereo not shown) [C3-8], in assay [1], the “% Inhibition of HCT116p53+/+ cell proliferation at 10 µM” value is 91.2% and 77.9%. In assay [2], the “GSTO substrate assay % Inhibition at 10 µM” value is listed as 16.5%. The “GSTO binding assay (% Inhibition at 10 µM) Recombinant” value in assay [3] was -4.9%. In assay [4], the “GSTO binding assay (% Inhibition at 10 µM) Endogenous” value turned out to be 33.4%.
As to `C=CCN(C(=O)CCl)c1nc(-c2ccc(Cl)c(Cl)c2)cs1` [C4-5], the “% Inhibition of HCT116p53+/+ cell proliferation at 10 µM” value in assay [1] is 9.9% and 16.9%. In assay [2], the “GSTO substrate assay % Inhibition at 10 µM” value came to 5.0%. Further, the “GSTO binding assay (% Inhibition at 10 µM) Recombinant” value in assay [3] is recorded as -8.2%. For the same compound, the “GSTO binding assay (% Inhibition at 10 µM) Endogenous” value in assay [4] is 15.9%.
Take `N#Cc1cnn(-c2ccccc2)c1NC(=O)CCl` [C2-6]: the “% Inhibition of HCT116p53+/+ cell proliferation at 10 µM” value in assay [1] is -17% and -9.7%. The “GSTO substrate assay % Inhibition at 10 µM” value in assay [2] is 84.5%. The “GSTO binding assay (% Inhibition at 10 µM) Recombinant” value in assay [3] amounted to 36.8%. The “GSTO binding assay (% Inhibition at 10 µM) Endogenous” value in assay [4] is reported as 25.2%.
Consider `Cc1cccc2sc(N(Cc3ccccc3)C(=O)CCl)nc12` [C4-16], for which, in assay [1], the “% Inhibition of HCT116p53+/+ cell proliferation at 10 µM” value is 86.3% and 89.8%. Moreover, the “GSTO substrate assay % Inhibition at 10 µM” value in assay [2] was found to be 32.6%. In addition, in assay [3], the “GSTO binding assay (% Inhibition at 10 µM) Recombinant” value is listed as 66.3%. In addition, in assay [4], the “GSTO binding assay (% Inhibition at 10 µM) Endogenous” value is listed as 30.0%.
For `O=C(CCl)N1CCN(S(=O)(=O)C=Cc2ccccc2)CC1` [C5-16], the “% Inhibition of HCT116p53+/+ cell proliferation at 10 µM” value in assay [1] is 48.3% and 46.5%. The “GSTO substrate assay % Inhibition at 10 µM” value in assay [2] amounted to 2.4%. In addition, in assay [3], the “GSTO binding assay (% Inhibition at 10 µM) Recombinant” value stood at 82.7%. For the same compound, the “GSTO binding assay (% Inhibition at 10 µM) Endogenous” value in assay [4] is 61.7%.
As to `CC(NC(=O)CCl)C12CC3CC(CC(C3)C1)C2` (stereo not shown) [C3-33], the “% Inhibition of HCT116p53+/+ cell proliferation at 10 µM” value in assay [1] was 24.7% and 38.5%. In addition, the “GSTO substrate assay % Inhibition at 10 µM” value in assay [2] turned out to be 36.3%. Further, in assay [3], the “GSTO binding assay (% Inhibition at 10 µM) Recombinant” value was 16.6%. In addition, the “GSTO binding assay (% Inhibition at 10 µM) Endogenous” value in assay [4] is recorded as 55.3%.
With `CCN(CC)S(=O)(=O)c1ccc(CNC(=O)CCl)cc1` [C3-2], the “% Inhibition of HCT116p53+/+ cell proliferation at 10 µM” value in assay [1] is 55.3% and 49.6%. Further, in assay [2], the “GSTO substrate assay % Inhibition at 10 µM” value is on record as 86.4% and the IC50 was 1480 nM. Besides, the “GSTO binding assay (% Inhibition at 10 µM) Recombinant” value in assay [3] stood at 63.3%. For the same compound, in assay [4], the “GSTO binding assay (% Inhibition at 10 µM) Endogenous” value was determined as 63.6%.
As to `CC(NC(=O)CCl)c1cc2ccccc2o1` (stereo not shown) [C3-29], the “% Inhibition of HCT116p53+/+ cell proliferation at 10 µM” value in assay [1] is listed as 89.7%. The “GSTO substrate assay % Inhibition at 10 µM” value in assay [2] worked out at 73.0%. In assay [3], the “GSTO binding assay (% Inhibition at 10 µM) Recombinant” value came out at 46.7%. Moreover, the “GSTO binding assay (% Inhibition at 10 µM) Endogenous” value in assay [4] amounted to 88.9%.
Turning to `CN(CC(=O)N1CCOCC1)C(=O)CCl` [C4-12], the “% Inhibition of HCT116p53+/+ cell proliferation at 10 µM” value in assay [1] was 91.1% and 92.6%. Further, the “GSTO substrate assay % Inhibition at 10 µM” value in assay [2] turned out to be 81.7%. Also, in assay [3], the “GSTO binding assay (% Inhibition at 10 µM) Recombinant” value is given as -4.7%. In addition, the “GSTO binding assay (% Inhibition at 10 µM) Endogenous” value in assay [4] is reported as -29.3%.
